Source: ChEMBL document CHEMBL1201862, “PubChem BioAssay data set” (2004)
Several values for one entry are separate records, joined by “and”; a condition that tells them apart may be missing. Equal entries are not always repeated.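 How tested: cells in 96-well plates exposed to compound for 48 hours at five concentrations. At the GI50, growth is halved.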 Activity calls are given as the source filed them. Cut-off read from the data, not from the text of the source: active = GI50 up to about 1.1 µM and inactive = higher.

What was measured:
Assay in all cases: NCI anticancer screen, dose series, 48 h
SK-OV-3 = tested on: SK-OV-3
LOX IMVI = tested on: LOX IMVI
Malme-3M = tested on: Malme-3M
A498 = tested on: A498
M14 = tested on: M14
HCT-15 = tested on: HCT-15
MDA-N = tested on: MDA-N
NCI/ADR-RES = tested on: NCI/ADR-RES
Hs-578T = tested on: Hs-578T
SK-MEL-2 = tested on: SK-MEL-2
OVCAR-8 = tested on: OVCAR-8
HT-29 = tested on: HT-29
SK-MEL-5 = tested on: SK-MEL-5
SF-295 = tested on: SF-295
SF-268 = tested on: SF-268
786-0 = tested on: 786-0
RXF 393 = tested on: RXF 393
EKVX = tested on: EKVX
CAKI-1 = tested on: CAKI-1

Row | Compound | GI50 (SK-OV-3) | GI50 (LOX IMVI) | GI50 (Malme-3M) | GI50 (A498) | GI50 (M14) | GI50 (HCT-15) | GI50 (MDA-N) | GI50 (NCI/ADR-RES) | GI50 (Hs-578T) | GI50 (SK-MEL-2) | GI50 (OVCAR-8) | GI50 (HT-29) | GI50 (SK-MEL-5) | GI50 (SF-295) | GI50 (SF-268) | GI50 (786-0) | GI50 (RXF 393) | GI50 (EKVX) | GI50 (CAKI-1)
1 | O=C1NC(=O)C(C(CC(=O)c2ccc([N+](=O)[O-])cc2)c2ccccc2)C(=O)N1 (stereo not given) | > 100 µM (inactive) | 20 µM (inactive) | 0.0334 µM (active) | > 100 µM (inactive) | > 100 µM (inactive) | > 100 µM | 27.2 µM (inactive) | > 100 µM (inactive) | 10.9 µM (inactive) | > 100 µM (inactive) | > 100 µM (inactive) | 52.2 µM (inactive) | 41.6 µM (inactive) | 4.79 µM (inactive) | 19.9 µM (inactive) | > 100 µM (inactive) | 2.77 µM (inactive) | – | –
2 | CC(Br)C(=O)NN1C2=C(Nc3ccccc31)c1cccc3cccc2c13 (stereo not given) | – | 41.4 µM (inactive) | > 100 µM (inactive) | – | > 100 µM (inactive) | 66.1 µM | 90.6 µM (inactive) | 65.2 µM (inactive) | 58.9 µM (inactive) | – | 55.8 µM (inactive) | 49.1 µM (inactive) | 62.1 µM (inactive) | 39.3 µM (inactive) | > 100 µM (inactive) | 45.9 µM (inactive) | > 100 µM (inactive) | > 100 µM (inactive) | 74 µM (inactive)
3 | O=C(n1c(=O)n(-c2ccc(Cl)cc2)c(=O)n1C(=O)C(Cl)(Cl)Cl)C(Cl)(Cl)Cl | > 100 µM (inactive) | > 100 µM (inactive) | > 100 µM (inactive) | > 100 µM (inactive) | – | > 10 µM | > 100 µM (inactive) | 43.5 µM (inactive) | > 100 µM (inactive) | > 100 µM (inactive) | > 100 µM (inactive) | > 100 µM (inactive) | > 100 µM (inactive) | > 100 µM (inactive) | 50 µM (inactive) | > 100 µM (inactive) | – | > 100 µM (inactive) | > 100 µM (inactive)
4 | COc1ccc(C2CC(c3cc4c(C)c(C(=O)c5ccccc5)oc4cc3O)=Nc3ccccc3S2)cc1OC (stereo not given) | – | > 100 µM (inactive) | 25.8 µM (inactive) | > 57.5 µM (inactive) | > 57.1 µM (inactive) | > 73.1 µM | > 40.2 µM (inactive) | > 58.1 µM (inactive) | 25.8 µM (inactive) | > 59.2 µM (inactive) | > 100 µM (inactive) | > 100 µM (inactive) | > 56.5 µM (inactive) | – | > 42.7 µM (inactive) | 47.6 µM (inactive) | – | 28.2 µM (inactive) | –
5 | O=C(CC(C(=O)c1ccoc1)c1ccco1)c1ccco1 (stereo not given) | > 100 µM (inactive) | > 100 µM (inactive) | – | > 100 µM (inactive) | > 100 µM (inactive) | > 100 µM | 29.4 µM (inactive) | 80.5 µM (inactive) | > 100 µM (inactive) | – | > 100 µM (inactive) | > 100 µM (inactive) | > 100 µM (inactive) | > 100 µM (inactive) | > 100 µM (inactive) | > 100 µM (inactive) | > 100 µM (inactive) | > 100 µM (inactive) | > 100 µM (inactive)
6 | CC1(C)NC(C(=O)c2ccccc2)=[N+]([O-])C1(O)c1ccccc1 (stereo not given) | > 100 µM (inactive) | > 100 µM (inactive) | > 100 µM (inactive) | – | > 100 µM (inactive) | 81.3 µM | > 100 µM (inactive) | > 100 µM (inactive) | > 100 µM (inactive) | > 100 µM (inactive) | > 100 µM (inactive) | > 100 µM (inactive) | 93.3 µM (inactive) | > 100 µM (inactive) | > 100 µM (inactive) | > 100 µM (inactive) | > 100 µM (inactive) | > 100 µM (inactive) | > 100 µM (inactive)
7 | CC1=CC(=O)CC2(C)CCC(C(C)CC(=O)CC(C)C)CC12OO (stereo not given) | – | 14.6 µM (inactive) and 16.4 µM (inactive) | 29.8 µM (inactive) and 16.7 µM (inactive) | 22.4 µM (inactive) and 16.9 µM (inactive) | 16.5 µM (inactive) and 17.9 µM (inactive) | – | 18.8 µM (inactive) and 18.1 µM (inactive) | 24.8 µM (inactive) and 23.1 µM (inactive) | 46.9 µM (inactive) and 28.4 µM (inactive) | 16.9 µM (inactive) and 20.2 µM (inactive) | 19.2 µM (inactive) and 27.7 µM (inactive) | 17 µM (inactive) and 20.7 µM (inactive) | 15.7 µM (inactive) and 21 µM (inactive) | 16.4 µM (inactive) and 17 µM (inactive) | 17 µM (inactive) and 20 µM (inactive) | 10.1 µM (inactive) and 13.1 µM (inactive) | – | 17.9 µM (inactive) and 19.9 µM (inactive) | 19.3 µM (inactive)
8 | COc1ccccc1NC(=S)NNC(=O)c1cc(-c2ccccc2)nc2ccccc12 | 16.9 µM (inactive) | – | 4.69 µM (inactive) | – | 11.9 µM (inactive) | 4.11 µM | 3.35 µM (inactive) | 12.8 µM (inactive) | 16.6 µM (inactive) | 10.4 µM (inactive) | 18 µM (inactive) | 21.9 µM (inactive) | 5.81 µM (inactive) | 4.38 µM (inactive) | 17.5 µM (inactive) | 13.2 µM (inactive) | 3.27 µM (inactive) | – | 10.7 µM (inactive)
9 | NC(CC(O)(c1ccccc1)c1ccccc1)c1ccccc1S (stereo not given) | 18.7 µM (inactive) | 13.8 µM (inactive) | 25.7 µM (inactive) | 17.6 µM (inactive) | 15.4 µM (inactive) | 15.2 µM | 15.6 µM (inactive) | 16.6 µM (inactive) | 20.3 µM (inactive) | 15.9 µM (inactive) | > 10 µM (inactive) | 14.5 µM (inactive) | 13 µM (inactive) | 14.9 µM (inactive) | 9.71 µM (inactive) | 15.9 µM (inactive) | 17 µM (inactive) | 7.94 µM (inactive) | –
10 | Cc1ccc(-c2cnc(NC3OC(COC(=O)c4ccccc4)C(OC(=O)c4ccccc4)C(OC(=O)c4ccccc4)C3OC(=O)c3ccccc3)s2)cc1 (stereo not given) | > 100 µM (inactive) | > 100 µM (inactive) | > 100 µM (inactive) | – | 40.6 µM (inactive) | > 100 µM | > 100 µM (inactive) | > 100 µM (inactive) | 82 µM (inactive) | > 100 µM (inactive) | > 100 µM (inactive) | > 100 µM (inactive) | > 100 µM (inactive) | > 100 µM (inactive) | > 100 µM (inactive) | 44.6 µM (inactive) | > 100 µM (inactive) | > 100 µM (inactive) | –
11 | C/C(=N\NC(=S)NCCCCNC(=S)N/N=C(\C)c1ccccn1)c1ccccc1 | 2.27 µM (inactive) | 0.845 µM (active) | 0.845 µM (active) | 3.05 µM (inactive) | – | 0.484 µM | 2.25 µM (inactive) | 0.914 µM (active) | > 23.6 µM (inactive) | 6.71 µM (inactive) | 0.337 µM (active) | 0.531 µM (active) | 0.714 µM (active) | 0.982 µM (active) | 0.394 µM (active) | 6.18 µM (inactive) | 1.02 µM (active) | 2.23 µM (inactive) | –
12 | COC(=O)[C@@]12CC[C@]1(C(=O)OC)C1C(C)=CC(=O)O[C@@]12C (stereo not given in full) | > 100 µM (inactive) | > 100 µM (inactive) | > 100 µM (inactive) | – | > 100 µM (inactive) | > 100 µM | > 100 µM (inactive) | > 100 µM (inactive) | > 100 µM (inactive) | – | > 100 µM (inactive) | > 100 µM (inactive) | > 100 µM (inactive) | > 100 µM (inactive) | > 100 µM (inactive) | > 100 µM (inactive) | > 100 µM (inactive) | > 100 µM (inactive) | –
